{"source": "patent US20220016174A1", "about": "“FOETAL MESENCHYMAL STEM CELL COMPOSITION OF ALLOGENIC ORGIN, TREATMENT METHOD AND USE THEREOF IN MASTITIS IN MILK-PRODUCING ANIMALS, INCLUDING CATTLE” (UNIVERSIDAD DE CHILE, priority 2018, published 2022)", "key": {"[1]": {"system": "S. aureus", "experiment": "Bacteriological analysis (CFU) in milk of cows challenged with S. aureus", "type": "in vivo, Staphylococcus aureus", "description": "1 mL of PBS was inoculated into the right quarters as a control. The NEG group (without therapy) was treated on days 4 and 10 with a 5 mL Ringer Lactate solution via the teat canal in the two infected quarters. The ATB group (antibiotic therapy) was treated with a commercial suspension of 50 mg of pirlimycin on experimental days 4 and 5 via the teat canal in the two infected quarters. The MSC group (MSC therapy) was administered with a 2.5×10^7 suspension of MSC in 3 ml of Lactated Ringer via the teat canal in the two infected quarters. From the day of the challenge and daily during 15 days, the cows were clinically evaluated and milk samples were collected daily to determine SCC and CFU (FIG. 2B). The clinical evaluation and the collection of milk samples were carried out as detailed below.\nMilk samples prior to milking were collected aseptically from all cows following the protocols of the International Dairy Federation (1985) on three consecutive days prior to the experimental challenge (FIG. 2B). Briefly, before milking, the quarters and teats were cleaned using a brush or washed with water in case of excessive presence of mud or manure. Then the teats and especially the tips of the teats were disinfected using paper towels with 70% alcohol. Three or four milk streams were discarded to reduce the possibility of contamination with pathogens present in the teat canal. Each of the teats, starting with the most distant ones, were disinfected again using a 70% alcohol swab. Previously labelled sample bottles were positioned at a 45-degree angle below the nipple without touching it to prevent contamination. Nearby teats were first sampled and then distant teats, filling one third of the vial. The samples were refrigerated or frozen for analysis of SCC or CFU, respectively. Only cows with three negative consecutive cultures were used in the study. […]\nFrom the day of the challenge and daily for 15 days, milk samples were collected for determination of CFU. The CFU values were subsequently expressed as a linear score (LS-CFU) by means of logarithmic transformation (LS=LOGN). […]"}, "[2]": {"system": "Holstein Friesian cows challenged with S. aureus", "experiment": "Clinical and productive variables in cows challenged with S. aureus (induced mastitis)", "type": "in vivo"}}}
{"smiles": "CC[C@@H]1CCN[C@H](C(=O)N[C@@H]([C@H]2O[C@H](SC)[C@H](O)[C@@H](O)[C@H]2O)[C@H](C)Cl)C1", "note": "[ATB, pirlimycin]", "values": [{"measurement": "LS-CFU (linear score of CFU in milk)", "setting": "[1]; day 3 post-challenge (before treatment on day 4)", "value": "−0.7"}, {"measurement": "LS-CFU (linear score of CFU in milk)", "setting": "[1]; day 8 post-challenge", "value": "−0.7"}, {"measurement": "LS-CFU (linear score of CFU in milk)", "setting": "[1]; day 9 post-challenge", "value": "−0.7"}, {"measurement": "average daily milk production", "setting": "[2]", "value": "16.7±0.8", "unit": "I"}, {"measurement": "decrease in milk production between days 5 and 7", "setting": "[2]", "value": 2.1}, {"measurement": "Milk yield reduction days 5-7 (Its.)", "setting": "[2]; days 5-7", "value": 2.1, "unit": "Its."}, {"measurement": "Milk yield (Its.)", "setting": "[2]; n=5 each group, mean ± SD", "value": "16.7 ± 0.8", "unit": "Its."}, {"measurement": "Rectal temperature (° C.)", "setting": "[2]; n=5 each group, mean ± SD", "value": "38.1 ± 0.3", "unit": "°C"}, {"measurement": "Respiratory rate (bpm)", "setting": "[2]; n=5 each group, mean ± SD", "value": "28.6 ± 2.5", "unit": "bpm"}, {"measurement": "Ruminal frequency (in 2 min)", "setting": "[2]; n=5 each group, mean ± SD", "value": "2.6 ± 0.3"}, {"measurement": "Termography BL (° C.)", "setting": "[2]; n=5 each group, mean ± SD", "value": "34.3 ± 0.6", "unit": "°C"}, {"measurement": "Termography BR (° C.)", "setting": "[2]; n=5 each group, mean ± SD", "value": "34.2 ± 0.5", "unit": "°C"}, {"measurement": "Termography FL (° C.)", "setting": "[2]; n=5 each group, mean ± SD", "value": "33.8 ± 0.7", "unit": "°C"}, {"measurement": "Termography FR(° C.)", "setting": "[2]; n=5 each group, mean ± SD", "value": "33.7 ± 0.7", "unit": "°C"}]}
